Experimental data: article PMC5862592, “CDK8/19 inhibition induces premature G1/S transition and ATR-dependent cell death in prostate cancer cells” (Oncotarget, 2018)
Like-named read-outs stand apart in the source and are kept apart here.

Assays:
Test in all cases: biochemical
Set-up in all cases: KINOMEscan active site-directed competition binding assay (DiscoveRx), 456 kinases, per cent of control at 300 nM
Conditions in all cases: read-out: Percent of Control (%)
ARK5 = target: T1, ARK5 (Homo sapiens, UniProt O60285)
T1 construct: gene NUAK1
Description: (§1) Kinase selectivity of T-474 and T-418 was evaluated at 300 nmol/L using a panel of 456 kinases at DiscoveRx (KINOMEscan). The platform employs an active site-directed competition binding assay to quantitatively measure interactions between test compounds and kinases. […] In VCaP prostate cancer cells, treatment with T-474 or T-418 suppressed the phosphorylation of the known CDK8 substrate STAT1 at Ser727 both in the absence and in the presence of IFN-γ (Figure 1B), which stimulates CDK8-mediated STAT1 phosphorylation.

ULK2 = ULK2 (Homo sapiens, UniProt Q8IYT8)
Description: as §1

IKK-epsilon = target: T2, IKK-epsilon (Homo sapiens, UniProt Q14164)
T2 construct: gene IKBKE
Description: as §1

EPHB2 = EPHB2 (Homo sapiens, UniProt P29323)
Description: as §1

[1] = target: T3, RSK4(Kin.Dom.2-C-terminal) (Homo sapiens, UniProt Q9UK32)
T3 construct: gene RPS6KA6; Kin.Dom.2-C-terminal
Description: as §1

EPHB6 = EPHB6 (Homo sapiens, UniProt O15197)
Description: as §1

SRC = SRC (Homo sapiens, UniProt P12931)
Description: as §1

PIK3CA(H1047Y) = PIK3CA(H1047Y) (Homo sapiens, UniProt P42336, H1047Y)
Description: as §1

PCTK1 = target: T4, PCTK1 (Homo sapiens, UniProt Q00536)
T4 construct: gene CDK16
Description: as §1

[2] = target: T5, ABL1(F317I)-phosphorylated (Homo sapiens, UniProt P00519, F317I)
T5 construct: phosphorylated
Description: as §1

MET(Y1235D) = MET(Y1235D) (Homo sapiens, UniProt P08581, Y1235D)
Description: as §1

RET = RET (Homo sapiens, UniProt P07949)
Description: as §1

EGFR(L858R,T790M) = EGFR(L858R,T790M) (Homo sapiens, UniProt P00533, L858R/T790M)
Description: as §1

[3] = target: T6, RSK3(Kin.Dom.2-C-terminal) (Homo sapiens, UniProt Q15349)
T6 construct: gene RPS6KA2; Kin.Dom.2-C-terminal
Description: as §1

LATS1 = LATS1 (Homo sapiens, UniProt O95835)
Description: as §1

FLT1 = FLT1 (Homo sapiens, UniProt P17948)
Description: as §1

PRKD2 = PRKD2 (Homo sapiens, UniProt Q9BZL6)
Description: as §1

EPHA1 = EPHA1 (Homo sapiens, UniProt P21709)
Description: as §1

MYLK2 = MYLK2 (Homo sapiens, UniProt Q9H1R3)
Description: as §1

PKAC-beta = target: T7, PKAC-beta (Homo sapiens, UniProt P22694)
T7 construct: gene PRKACB
Description: as §1

OSR1 = target: T8, OSR1 (Homo sapiens, UniProt O95747)
T8 construct: gene OXSR1
Description: as §1

PRKD2, sequence (Q9BZL6 whole entry): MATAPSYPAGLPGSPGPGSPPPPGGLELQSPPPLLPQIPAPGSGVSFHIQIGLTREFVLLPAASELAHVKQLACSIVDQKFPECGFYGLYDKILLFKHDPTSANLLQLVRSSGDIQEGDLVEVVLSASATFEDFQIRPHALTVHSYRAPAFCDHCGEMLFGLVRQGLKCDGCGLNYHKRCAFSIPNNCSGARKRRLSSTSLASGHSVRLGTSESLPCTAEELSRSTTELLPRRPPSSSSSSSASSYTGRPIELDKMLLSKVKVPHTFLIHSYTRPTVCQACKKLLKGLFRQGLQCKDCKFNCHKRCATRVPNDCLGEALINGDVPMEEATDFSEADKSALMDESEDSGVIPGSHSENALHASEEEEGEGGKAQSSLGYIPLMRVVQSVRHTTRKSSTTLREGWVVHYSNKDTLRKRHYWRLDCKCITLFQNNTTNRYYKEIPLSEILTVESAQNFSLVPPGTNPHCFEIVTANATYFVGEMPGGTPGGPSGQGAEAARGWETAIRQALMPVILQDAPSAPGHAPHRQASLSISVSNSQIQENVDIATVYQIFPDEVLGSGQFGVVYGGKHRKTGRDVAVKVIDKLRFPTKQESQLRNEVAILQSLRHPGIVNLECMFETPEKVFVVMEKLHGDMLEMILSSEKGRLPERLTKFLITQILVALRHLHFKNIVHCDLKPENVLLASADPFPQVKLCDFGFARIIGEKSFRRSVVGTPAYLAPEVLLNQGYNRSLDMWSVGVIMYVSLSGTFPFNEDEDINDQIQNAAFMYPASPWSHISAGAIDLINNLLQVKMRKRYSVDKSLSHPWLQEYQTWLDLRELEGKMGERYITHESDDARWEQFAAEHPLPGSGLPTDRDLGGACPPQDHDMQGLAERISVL
LATS1, sequence (O95835 whole entry): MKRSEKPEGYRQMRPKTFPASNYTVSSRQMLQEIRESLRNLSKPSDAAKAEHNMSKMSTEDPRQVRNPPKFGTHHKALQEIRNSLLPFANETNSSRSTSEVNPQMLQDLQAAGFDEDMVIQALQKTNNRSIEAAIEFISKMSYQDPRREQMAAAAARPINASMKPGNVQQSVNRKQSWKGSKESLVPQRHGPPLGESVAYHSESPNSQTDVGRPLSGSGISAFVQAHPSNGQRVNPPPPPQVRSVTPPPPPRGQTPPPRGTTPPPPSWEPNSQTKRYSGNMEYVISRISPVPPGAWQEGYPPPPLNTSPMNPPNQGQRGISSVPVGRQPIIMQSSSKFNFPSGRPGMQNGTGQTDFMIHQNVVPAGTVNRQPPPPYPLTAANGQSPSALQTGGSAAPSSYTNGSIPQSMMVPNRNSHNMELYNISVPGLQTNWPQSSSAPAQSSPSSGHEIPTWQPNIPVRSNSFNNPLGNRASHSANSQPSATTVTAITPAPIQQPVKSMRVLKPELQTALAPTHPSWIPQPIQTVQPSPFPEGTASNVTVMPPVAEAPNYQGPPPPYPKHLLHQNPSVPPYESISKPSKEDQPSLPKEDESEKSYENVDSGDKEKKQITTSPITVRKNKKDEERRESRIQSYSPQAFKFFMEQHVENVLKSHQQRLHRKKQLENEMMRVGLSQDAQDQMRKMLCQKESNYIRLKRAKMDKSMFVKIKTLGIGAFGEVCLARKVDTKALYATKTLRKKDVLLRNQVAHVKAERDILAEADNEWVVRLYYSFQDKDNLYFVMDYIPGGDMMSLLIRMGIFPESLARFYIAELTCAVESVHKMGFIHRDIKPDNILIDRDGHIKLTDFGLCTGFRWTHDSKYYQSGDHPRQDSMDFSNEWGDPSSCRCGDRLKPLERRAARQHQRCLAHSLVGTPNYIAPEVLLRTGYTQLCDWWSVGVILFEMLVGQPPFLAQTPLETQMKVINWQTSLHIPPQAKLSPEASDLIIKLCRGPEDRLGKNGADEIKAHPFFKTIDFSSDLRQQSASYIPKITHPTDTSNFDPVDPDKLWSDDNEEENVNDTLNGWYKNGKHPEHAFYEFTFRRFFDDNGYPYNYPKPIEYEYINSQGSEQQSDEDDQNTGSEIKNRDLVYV
T6 sequence (Q15349 whole entry): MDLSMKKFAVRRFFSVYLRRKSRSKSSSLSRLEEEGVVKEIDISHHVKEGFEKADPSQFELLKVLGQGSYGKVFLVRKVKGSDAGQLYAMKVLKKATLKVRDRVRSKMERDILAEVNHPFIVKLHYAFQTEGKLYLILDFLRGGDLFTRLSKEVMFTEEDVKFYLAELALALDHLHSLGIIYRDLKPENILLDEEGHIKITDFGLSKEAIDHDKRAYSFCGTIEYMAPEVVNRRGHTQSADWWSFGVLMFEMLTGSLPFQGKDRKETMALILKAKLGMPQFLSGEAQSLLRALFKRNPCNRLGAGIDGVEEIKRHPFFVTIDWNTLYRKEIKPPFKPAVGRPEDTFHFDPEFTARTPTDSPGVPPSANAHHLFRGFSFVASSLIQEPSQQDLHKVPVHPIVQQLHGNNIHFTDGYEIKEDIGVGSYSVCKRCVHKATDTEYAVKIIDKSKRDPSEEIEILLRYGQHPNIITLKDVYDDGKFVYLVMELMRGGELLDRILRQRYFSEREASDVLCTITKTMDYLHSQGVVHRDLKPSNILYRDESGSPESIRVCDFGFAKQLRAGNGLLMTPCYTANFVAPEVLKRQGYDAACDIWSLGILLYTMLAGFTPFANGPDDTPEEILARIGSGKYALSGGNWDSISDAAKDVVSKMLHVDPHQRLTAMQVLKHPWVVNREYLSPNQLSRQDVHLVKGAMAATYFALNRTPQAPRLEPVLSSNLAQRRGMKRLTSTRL
FLT1, sequence (P17948 whole entry): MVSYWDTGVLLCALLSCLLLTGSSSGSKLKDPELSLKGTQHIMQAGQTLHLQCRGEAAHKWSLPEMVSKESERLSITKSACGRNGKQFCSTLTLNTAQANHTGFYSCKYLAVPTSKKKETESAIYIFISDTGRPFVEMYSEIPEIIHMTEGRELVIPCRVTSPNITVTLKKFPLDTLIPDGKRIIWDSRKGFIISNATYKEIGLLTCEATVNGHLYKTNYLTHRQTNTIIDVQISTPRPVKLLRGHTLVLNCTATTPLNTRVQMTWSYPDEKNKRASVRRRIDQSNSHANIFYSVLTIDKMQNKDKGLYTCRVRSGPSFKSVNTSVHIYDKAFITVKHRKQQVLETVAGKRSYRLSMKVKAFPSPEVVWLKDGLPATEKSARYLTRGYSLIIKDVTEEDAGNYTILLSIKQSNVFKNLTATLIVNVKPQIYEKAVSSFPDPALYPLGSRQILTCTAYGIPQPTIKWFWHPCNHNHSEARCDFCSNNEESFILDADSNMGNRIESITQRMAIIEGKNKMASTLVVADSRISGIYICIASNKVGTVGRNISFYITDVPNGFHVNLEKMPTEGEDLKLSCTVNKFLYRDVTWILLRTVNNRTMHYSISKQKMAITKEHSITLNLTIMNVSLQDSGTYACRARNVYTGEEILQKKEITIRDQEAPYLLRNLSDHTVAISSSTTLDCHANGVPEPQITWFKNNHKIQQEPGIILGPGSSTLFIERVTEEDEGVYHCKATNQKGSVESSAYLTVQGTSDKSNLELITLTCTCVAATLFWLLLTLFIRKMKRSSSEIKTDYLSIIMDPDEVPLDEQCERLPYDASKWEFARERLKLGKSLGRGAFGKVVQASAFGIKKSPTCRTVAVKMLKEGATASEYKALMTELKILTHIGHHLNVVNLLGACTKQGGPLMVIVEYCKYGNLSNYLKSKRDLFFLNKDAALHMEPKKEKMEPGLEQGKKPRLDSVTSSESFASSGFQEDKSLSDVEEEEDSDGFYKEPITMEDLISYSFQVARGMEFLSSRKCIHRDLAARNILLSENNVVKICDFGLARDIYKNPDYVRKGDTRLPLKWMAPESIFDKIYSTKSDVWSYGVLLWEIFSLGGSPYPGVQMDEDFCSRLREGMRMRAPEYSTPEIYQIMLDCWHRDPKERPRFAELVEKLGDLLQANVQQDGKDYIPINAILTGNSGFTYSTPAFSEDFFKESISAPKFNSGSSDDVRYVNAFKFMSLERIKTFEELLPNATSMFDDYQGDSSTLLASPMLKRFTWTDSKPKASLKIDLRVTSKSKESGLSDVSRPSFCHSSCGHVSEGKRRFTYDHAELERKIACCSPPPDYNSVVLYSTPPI
T8 sequence (O95747 whole entry): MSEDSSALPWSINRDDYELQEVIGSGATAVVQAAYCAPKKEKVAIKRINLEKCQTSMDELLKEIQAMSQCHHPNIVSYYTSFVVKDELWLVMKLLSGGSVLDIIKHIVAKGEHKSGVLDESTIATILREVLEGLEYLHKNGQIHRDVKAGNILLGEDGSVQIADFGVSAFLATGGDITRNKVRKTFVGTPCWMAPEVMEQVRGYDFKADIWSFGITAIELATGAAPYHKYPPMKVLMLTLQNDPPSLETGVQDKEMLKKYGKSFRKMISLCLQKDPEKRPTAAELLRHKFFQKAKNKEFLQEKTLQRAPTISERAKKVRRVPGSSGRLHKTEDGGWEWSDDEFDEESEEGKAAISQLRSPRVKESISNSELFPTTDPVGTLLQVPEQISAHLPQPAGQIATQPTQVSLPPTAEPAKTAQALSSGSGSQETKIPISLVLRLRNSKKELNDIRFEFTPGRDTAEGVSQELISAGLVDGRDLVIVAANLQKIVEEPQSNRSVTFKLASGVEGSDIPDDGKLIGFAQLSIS
T4 sequence (Q00536 whole entry): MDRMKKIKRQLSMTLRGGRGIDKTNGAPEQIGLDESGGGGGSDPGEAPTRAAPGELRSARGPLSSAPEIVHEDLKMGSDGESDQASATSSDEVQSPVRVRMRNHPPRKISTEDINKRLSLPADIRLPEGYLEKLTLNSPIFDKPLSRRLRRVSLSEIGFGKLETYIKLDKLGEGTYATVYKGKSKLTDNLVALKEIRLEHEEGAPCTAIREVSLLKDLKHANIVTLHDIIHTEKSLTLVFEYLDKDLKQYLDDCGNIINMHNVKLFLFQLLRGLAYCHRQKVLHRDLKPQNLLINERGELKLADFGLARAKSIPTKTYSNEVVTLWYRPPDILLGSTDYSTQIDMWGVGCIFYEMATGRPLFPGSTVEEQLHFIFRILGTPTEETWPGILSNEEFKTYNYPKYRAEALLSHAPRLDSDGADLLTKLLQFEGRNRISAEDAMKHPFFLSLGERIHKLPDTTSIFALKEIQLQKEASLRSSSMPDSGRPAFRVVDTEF

## O=C(/C=C/c1cnccc1-c1ccc(F)cc1)Nc1ccc(CCc2nnco2)cc1 [T-418, (2E)-3-(4-(4-fluorophenyl)pyridin-3-yl)-N-(4-(2-(1,3,4-oxadiazol-2-yl)ethyl)phenyl)acrylamide]
ARK5; sheet T-418
  remaining binding at 0.3 µM: 100%
ULK2; sheet T-418
  remaining binding at 0.3 µM: 100%
IKK-epsilon; sheet T-418
  remaining binding at 0.3 µM: 100%
EPHB2; sheet T-418
  remaining binding at 0.3 µM: 100%
[1]; sheet T-418
  remaining binding at 0.3 µM: 100%
EPHB6; sheet T-418
  remaining binding at 0.3 µM: 93%
SRC; sheet T-418
  remaining binding at 0.3 µM: 90%
PIK3CA(H1047Y); sheet T-418
  remaining binding at 0.3 µM: 73%
PCTK1; sheet T-418
  remaining binding at 0.3 µM: 98%
[2]; sheet T-418
  remaining binding at 0.3 µM: 100%
MET(Y1235D); sheet T-418
  remaining binding at 0.3 µM: 95%
RET; sheet T-418
  remaining binding at 0.3 µM: 63%
EGFR(L858R,T790M); sheet T-418
  remaining binding at 0.3 µM: 98%
[3]; sheet T-418
  remaining binding at 0.3 µM: 100%
LATS1; sheet T-418
  remaining binding at 0.3 µM: 60%
FLT1; sheet T-418
  remaining binding at 0.3 µM: 100%
PRKD2; sheet T-418
  remaining binding at 0.3 µM: 76%
EPHA1; sheet T-418
  remaining binding at 0.3 µM: 71%
MYLK2; sheet T-418
  remaining binding at 0.3 µM: 62%
PKAC-beta; sheet T-418
  remaining binding at 0.3 µM: 88%
OSR1; sheet T-418
  remaining binding at 0.3 µM: 53%

## Cc1ncccc1Oc1sc(C(N)=O)c2c1-c1c(cnn1C)CC2 [T-474, 1-methyl-8-((2-methylpyridin-3-yl)oxy)-4,5-dihydro-1H-thieno[3,4-g]indazole-6-carboxamide]
ARK5
  remaining binding at 0.3 µM: 100%
ULK2
  remaining binding at 0.3 µM: 100%
IKK-epsilon
  remaining binding at 0.3 µM: 100%
EPHB2
  remaining binding at 0.3 µM: 83%
[1]
  remaining binding at 0.3 µM: 100%
EPHB6
  remaining binding at 0.3 µM: 86%
SRC
  remaining binding at 0.3 µM: 96%
PIK3CA(H1047Y)
  remaining binding at 0.3 µM: 54%
PCTK1
  remaining binding at 0.3 µM: 100%
[2]
  remaining binding at 0.3 µM: 100%
MET(Y1235D)
  remaining binding at 0.3 µM: 100%
RET
  remaining binding at 0.3 µM: 100%
EGFR(L858R,T790M)
  remaining binding at 0.3 µM: 85%
[3]
  remaining binding at 0.3 µM: 100%
LATS1
  remaining binding at 0.3 µM: 67%
FLT1
  remaining binding at 0.3 µM: 100%
PRKD2
  remaining binding at 0.3 µM: 100%
EPHA1
  remaining binding at 0.3 µM: 73%
MYLK2
  remaining binding at 0.3 µM: 92%
PKAC-beta
  remaining binding at 0.3 µM: 100%
OSR1
  remaining binding at 0.3 µM: 60%
